Laboratory results from PubChem BioAssay AID2060884 (Molecular Pharmacology Branch, DTP, NCI, 2025).
Several values for one entry are separate records, joined by “and”; a condition that tells them apart may be missing. Identical values can stand only once.

System: NCI-H929 complex spheroids, viability % test/control
Test: Anticancer human tumor NCI-H929 cell line growth inhibition [RAS];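 further: compound exposure lasted seven days before viability was read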;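 on viability, T/C: 100% = DMSO vehicle control viability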
Conditions: for viability, T/C: stronger effect = lower value
Outline: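 Tumour cells grown as complex spheroids with HUVEC endothelial cells and mesenchymal stem cells, treated with RAS pathway inhibitor combinations. Each agent spans half-log steps from near clinical Cmax, or 10 microM where Cmax is unknown.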

[1] = curve of first compound, second compound 0.0316 µM
[2] = curve of first compound, second compound 0.1 µM
[3] = curve of first compound, second compound 0.316 µM
[4] = curve of first compound, second compound 1 µM
[5] = curve of first compound, second compound 3.16 µM
[6] = curve of first compound, second compound 10 µM
[7] = second compound 0.0316 µM, first compound 0.0316 µM
[8] = second compound 0.0316 µM, first compound 0.1 µM
[9] = second compound 0.1 µM, first compound 0.0316 µM
[10] = second compound 0.1 µM, first compound 0.1 µM
[11] = second compound 0.316 µM, first compound 0.0316 µM
[12] = second compound 0.316 µM, first compound 0.1 µM
[13] = second compound 1 µM, first compound 0.0316 µM
[14] = second compound 1 µM, first compound 0.1 µM
[15] = second compound 3.16 µM, first compound 0.0316 µM
[16] = second compound 3.16 µM, first compound 0.1 µM
[17] = second compound 10 µM, first compound 0.0316 µM
[18] = second compound 10 µM, first compound 0.1 µM

## CC(C)n1nc(-c2ccc3oc(N)nc3c2)c2c(N)ncnc21 + C#Cc1c(F)ccc2cc(O)cc(-c3ncc4c(N5CC6CCC(C5)N6)nc(OCC56CCCN5CC(F)C6)nc4c3F)c12
[1]
  IC50: 61.6 nM
[2]
  IC50: 61.7 nM
[3]
  IC50: 61.5 nM
[4]
  IC50: 60.2 nM
[5]
  IC50: 60.1 nM
[6]
  IC50: 44.6 nM
Second compound 0.0316 µM, first compound 0.000316 µM
  viability, T/C: 96.7%
Second compound 0.0316 µM, first compound 0.001 µM
  viability, T/C: 97.5%
Second compound 0.0316 µM, first compound 0.00316 µM
  viability, T/C: 103%
Second compound 0.0316 µM, first compound 0.01 µM
  viability, T/C: 112%
[7]
  viability, T/C: 119%
[8]
  viability, T/C: 9.44%
Second compound 0.1 µM, first compound 0.000316 µM
  viability, T/C: 96%
Second compound 0.1 µM, first compound 0.001 µM
  viability, T/C: 101%
Second compound 0.1 µM, first compound 0.00316 µM
  viability, T/C: 105%
Second compound 0.1 µM, first compound 0.01 µM
  viability, T/C: 115%
[9]
  viability, T/C: 118%
[10]
  viability, T/C: 8.74%
Second compound 0.316 µM, first compound 0.000316 µM
  viability, T/C: 96.7%
Second compound 0.316 µM, first compound 0.001 µM
  viability, T/C: 108%
Second compound 0.316 µM, first compound 0.00316 µM
  viability, T/C: 104%
Second compound 0.316 µM, first compound 0.01 µM
  viability, T/C: 113%
[11]
  viability, T/C: 117%
[12]
  viability, T/C: 7.88%
Second compound 1 µM, first compound 0.000316 µM
  viability, T/C: 95%
Second compound 1 µM, first compound 0.001 µM
  viability, T/C: 99.2%
Second compound 1 µM, first compound 0.00316 µM
  viability, T/C: 109%
Second compound 1 µM, first compound 0.01 µM
  viability, T/C: 112%
[13]
  viability, T/C: 117%
[14]
  viability, T/C: 5.23%
Second compound 3.16 µM, first compound 0.000316 µM
  viability, T/C: 99.5%
Second compound 3.16 µM, first compound 0.001 µM
  viability, T/C: 101%
Second compound 3.16 µM, first compound 0.00316 µM
  viability, T/C: 107%
Second compound 3.16 µM, first compound 0.01 µM
  viability, T/C: 111%
[15]
  viability, T/C: 112%
[16]
  viability, T/C: 5.57%
Second compound 10 µM, first compound 0.000316 µM
  viability, T/C: 101%
Second compound 10 µM, first compound 0.001 µM
  viability, T/C: 97.2%
Second compound 10 µM, first compound 0.00316 µM
  viability, T/C: 100%
Second compound 10 µM, first compound 0.01 µM
  viability, T/C: 96.6%
[17]
  viability, T/C: 69.5%
[18]
  viability, T/C: 4.27%

## CC1(O)CCCC1n1c(=O)c(C(F)F)cc2cnc(NC3CCN(S(C)(=O)=O)CC3)nc21 (configuration not stated)
Compound 0.0316 µM
  viability, T/C: 116% and 105% and 113% (2×)
Compound 0.316 µM
  viability, T/C: 4.47% [middle of 4 runs]
Compound 1 µM
  viability, T/C: 9.4% [middle of 4 runs]
Compound 3.16 µM
  viability, T/C: 2.17% [middle of 4 runs]
Compound 10 µM
  viability, T/C: 0.2% and 0.16% and 0.08%
Curve of compound
  IC50: 189 nM [middle of 4 runs]

## CCN1CCN(Cc2ccc(Nc3ncc(F)c(-c4cc(F)c5nc(C)n(C(C)C)c5c4)n3)nc2)CC1 + CCn1c(-c2cc(N3CCN(C)CC3)cnc2C(C)OC)c2c3cc(ccc31)-c1csc(n1)CC(NC(=O)C1CC1C)C(=O)N1CCCC(N1)C(=O)OCC(C)(C)C2
Curve of first compound, second compound 0.000949 µM
  IC50: 789 nM
Curve of first compound, second compound 0.003 µM
  IC50: 725 nM
Curve of first compound, second compound 0.00949 µM
  IC50: 642 nM
Curve of first compound, second compound 0.03 µM
  IC50: 134 nM
Curve of first compound, second compound 0.0949 µM
  IC50: < 3.16 nM
Curve of first compound, second compound 0.3 µM
  IC50: < 3.16 nM
Second compound 0.000949 µM, first compound 0.00316 µM
  viability, T/C: 104%
Second compound 0.000949 µM, first compound 0.01 µM
  viability, T/C: 98.4%
Second compound 0.000949 µM, first compound 0.0316 µM
  viability, T/C: 110%
Second compound 0.000949 µM, first compound 0.1 µM
  viability, T/C: 107%
Second compound 0.000949 µM, first compound 0.316 µM
  viability, T/C: 114%
Second compound 0.000949 µM, first compound 1 µM
  viability, T/C: 35.1%
Second compound 0.003 µM, first compound 0.00316 µM
  viability, T/C: 98.3%
Second compound 0.003 µM, first compound 0.01 µM
  viability, T/C: 105%
Second compound 0.003 µM, first compound 0.0316 µM
  viability, T/C: 108%
Second compound 0.003 µM, first compound 0.1 µM
  viability, T/C: 113%
Second compound 0.003 µM, first compound 0.316 µM
  viability, T/C: 114%
Second compound 0.003 µM, first compound 1 µM
  viability, T/C: 27.8%
Second compound 0.00949 µM, first compound 0.00316 µM
  viability, T/C: 109%
Second compound 0.00949 µM, first compound 0.01 µM
  viability, T/C: 116%
Second compound 0.00949 µM, first compound 0.0316 µM
  viability, T/C: 120%
Second compound 0.00949 µM, first compound 0.1 µM
  viability, T/C: 125%
Second compound 0.00949 µM, first compound 0.316 µM
  viability, T/C: 122%
Second compound 0.00949 µM, first compound 1 µM
  viability, T/C: 7.19%
Second compound 0.03 µM, first compound 0.00316 µM
  viability, T/C: 81.7%
Second compound 0.03 µM, first compound 0.01 µM
  viability, T/C: 80.5%
Second compound 0.03 µM, first compound 0.0316 µM
  viability, T/C: 76.6%
Second compound 0.03 µM, first compound 0.1 µM
  viability, T/C: 55.4%
Second compound 0.03 µM, first compound 0.316 µM
  viability, T/C: 29.2%
Second compound 0.03 µM, first compound 1 µM
  viability, T/C: 1.2%
Second compound 0.0949 µM, first compound 0.00316 µM
  viability, T/C: 9.23%
Second compound 0.0949 µM, first compound 0.01 µM
  viability, T/C: 8.26%
Second compound 0.0949 µM, first compound 0.0316 µM
  viability, T/C: 6.56%
Second compound 0.0949 µM, first compound 0.1 µM
  viability, T/C: 4.66%
Second compound 0.0949 µM, first compound 0.316 µM
  viability, T/C: 2.4%
Second compound 0.0949 µM, first compound 1 µM
  viability, T/C: 0.89%
Second compound 0.3 µM, first compound 0.00316 µM
  viability, T/C: 4.35%
Second compound 0.3 µM, first compound 0.01 µM
  viability, T/C: 4.24%
Second compound 0.3 µM, first compound 0.0316 µM
  viability, T/C: 2.73%
Second compound 0.3 µM, first compound 0.1 µM
  viability, T/C: 2.03%
Second compound 0.3 µM, first compound 0.316 µM
  viability, T/C: 1.42%
Second compound 0.3 µM, first compound 1 µM
  viability, T/C: 0.89%

## CC(C)NCC(C(=O)N1CCN(c2ncnc3c2C(C)CC3O)CC1)c1ccc(Cl)cc1 (configuration not stated) + C#Cc1c(F)ccc2cc(O)cc(-c3ncc4c(N5CC6CCC(C5)N6)nc(OCC56CCCN5CC(F)C6)nc4c3F)c12
[1]
  IC50: 4580 nM
[2]
  IC50: 3050 nM
[3]
  IC50: 3320 nM
[4]
  IC50: 3810 nM
[5]
  IC50: 2830 nM
[6]
  IC50: 1590 nM
[7]
  viability, T/C: 105%
[8]
  viability, T/C: 105%
Second compound 0.0316 µM, first compound 0.316 µM
  viability, T/C: 111%
Second compound 0.0316 µM, first compound 1 µM
  viability, T/C: 102%
Second compound 0.0316 µM, first compound 3.16 µM
  viability, T/C: 66%
Second compound 0.0316 µM, first compound 10 µM
  viability, T/C: 16.3%
[9]
  viability, T/C: 96.9%
[10]
  viability, T/C: 105%
Second compound 0.1 µM, first compound 0.316 µM
  viability, T/C: 109%
Second compound 0.1 µM, first compound 1 µM
  viability, T/C: 104%
Second compound 0.1 µM, first compound 3.16 µM
  viability, T/C: 48.3%
Second compound 0.1 µM, first compound 10 µM
  viability, T/C: 14.1%
[11]
  viability, T/C: 96.2%
[12]
  viability, T/C: 101%
Second compound 0.316 µM, first compound 0.316 µM
  viability, T/C: 108%
Second compound 0.316 µM, first compound 1 µM
  viability, T/C: 106%
Second compound 0.316 µM, first compound 3.16 µM
  viability, T/C: 51.6%
Second compound 0.316 µM, first compound 10 µM
  viability, T/C: 13.6%
[13]
  viability, T/C: 98.4%
[14]
  viability, T/C: 101%
Second compound 1 µM, first compound 0.316 µM
  viability, T/C: 108%
Second compound 1 µM, first compound 1 µM
  viability, T/C: 108%
Second compound 1 µM, first compound 3.16 µM
  viability, T/C: 58%
Second compound 1 µM, first compound 10 µM
  viability, T/C: 7.88%
[15]
  viability, T/C: 97.7%
[16]
  viability, T/C: 103%
Second compound 3.16 µM, first compound 0.316 µM
  viability, T/C: 107%
Second compound 3.16 µM, first compound 1 µM
  viability, T/C: 106%
Second compound 3.16 µM, first compound 3.16 µM
  viability, T/C: 44.2%
Second compound 3.16 µM, first compound 10 µM
  viability, T/C: 9.12%
[17]
  viability, T/C: 94.2%
[18]
  viability, T/C: 92.1%
Second compound 10 µM, first compound 0.316 µM
  viability, T/C: 101%
Second compound 10 µM, first compound 1 µM
  viability, T/C: 67.5%
Second compound 10 µM, first compound 3.16 µM
  viability, T/C: 21.9%
Second compound 10 µM, first compound 10 µM
  viability, T/C: 2.52%
